pEC50: −log10 of the molar value.
What was measured:
[1] = test system: target genes of the PPARs; assay: Expression of PPARδ target genes in skeletal muscle of the C57Bl6 mouse (compound 2), quantitative RT-PCR; format: in vivo; settings: C57Bl6 mice; 50 mpk; 14 days
Description: The PPARδ agonistic properties of the molecules according to the invention previously measured in vitro should be reflected at the level of the skeletal muscle in an overexpression of the target genes directly under the control of the PPARδ receptor: the genes that were investigated in this experiment are the genes coding for UCP2 (uncoupling protein 2, mitochondrial transporter involved in thermoregulation) and PDK4 (pyruvate dehydrogenase kinase isoform 4, enzyme of carbohydrate metabolism).
Female C57Bl6 mice were kept under a cycle of light and darkness of 12/12 hours at a constant temperature of 20±3° C. After acclimation for one week, the mice were weighed and put into groups of 6 animals selected so that the distribution of their body weight, of their plasma lipid levels and of total cholesterol determined for the first time before the experiment, is uniform. […]
1 μg of total RNA (quantified on the basis of the spectrophotometer reading) was then reverse-transcribed to complementary DNA by reaction for 1 hour at 37° C. in a total volume of 30 μl containing buffer 1× (Invitrogen), 1.5 mM of DTT, 0.18 mM of dNTPs (Promega), 200 ng of pdN6 (Amersham), 30 U of RNase inhibitor (Promega) and 1 μl of MMLV-RT (Invitrogen). […]
The amount of fluorescence emitted is directly proportional to the amount of complementary DNA present at the start of the reaction and amplified during PCR. […]

C57Bl6 mouse = assay: Plasma lipid assays in the C57Bl6 mouse, compound 2 at dose effect; format: in vivo
Protocol: The effect of compound 2, administered at dose effect, is evaluated in vivo in the C57Bl6 mouse after 14 days of treatment by the oral route. At the end of the treatment, the antilipemic effect of compound 2 is evaluated by measuring the plasma levels of total cholesterol, of HDL-cholesterol, of triglycerides and of free fatty acids.
Female C57Bl6 mice were kept under a cycle of light and darkness of 12/12 hours at a constant temperature of 20±3° C. After acclimation for one week, the mice were weighed and put into groups of 6 animals selected so that the distribution of their body weight, of their plasma lipid levels and of total cholesterol determined for the first time before the experiment, is uniform. The test compounds were suspended in carboxymethylcellulose (Sigma C4888) and administered by intragastric force feeding, at a rate of once per day for 14 days at the chosen dose. The animals had free access to water and to food (standard diet). At the end of the experiment, the animals were anesthetized after fasting for 4 hours. A blood sample was taken using anticoagulant (EDTA), then the mice were weighed and euthanased. The plasma was separated by centrifugation at 3000 rev/min for 20 minutes, and the samples were stored at +4° C.
Plasma concentrations of total cholesterol and of triglycerides were measured by enzyme assays (bioMérieux-Lyon-France) following the supplier's recommendations.
Low-density lipoproteins (VLDL and LDL) were precipitated with phosphotungstate. The precipitate was removed by centrifugation. The HDL-cholesterol present in the supernatant was quantified by enzyme assays (bioMérieux-Lyon-France) following the supplier's recommendations.
Plasma concentrations of free fatty acids were measured by enzyme assays (WACO chemicals) following the supplier's recommendations.

hPPARalpha = molecular target: T1, hPPARalpha (Homo sapiens, UniProt Q07869); assay: PPAR activation: Gal4-hPPARα chimera luciferase transactivation in COS-7 cells, Method 2; format: cell-based; settings: COS-7, 24 h
T1 construct: expressed in transfected cells; host or cells: COS-7 (monkey kidney fibroblasts)
T1 sequence (Q07869 239-466 limits assumed): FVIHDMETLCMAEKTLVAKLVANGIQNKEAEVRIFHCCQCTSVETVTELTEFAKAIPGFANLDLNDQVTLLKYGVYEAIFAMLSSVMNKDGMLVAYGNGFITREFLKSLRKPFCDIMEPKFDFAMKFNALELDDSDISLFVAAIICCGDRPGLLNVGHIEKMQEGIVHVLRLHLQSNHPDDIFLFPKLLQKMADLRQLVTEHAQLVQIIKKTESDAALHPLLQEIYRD
How it was run: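 COS-7 cells were transfected with Gal4-PPAR LBD chimera plus Gal4(RE)_TkpGL3 luciferase reporter (1/10) and seeded serum-free for 4 h. Compounds at 10^−5 to 100 μm were applied for 24 h at 37° C in 1% lipid-free synthetic serum. Luciferase was read after lysis, and EC50 derived.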

## CC(C)(Oc1ccc(CCC(=O)c2ccc(-c3ccc(C(F)(F)F)cc3)s2)c(Cl)c1Cl)C(=O)O [Compound 2, 2-(2,3-dichloro-4-(3-oxo-3-(5-(4-(trifluoromethyl)phenyl)thien-2-yl)propyl)phenoxy)-2-methylpropanoic acid]
[1]
  expression of the gene coding for PDK4 in skeletal muscle: significant increase
  expression of the gene coding for UCP2 in skeletal muscle: significant increase
C57Bl6 mouse; C57Bl6 mice treated for 14 days
  lipid profile: improves
C57Bl6 mouse; C57Bl6 mouse, 14 days oral, 1, 5, 10 and 50 mpk, significant effect at 50 mpk
  plasma triglyceride levels: dose-dependent decrease
C57Bl6 mouse; C57Bl6 mouse, 14 days oral, at 5 and 50 mpk (tested 1, 5, 10 and 50 mpk)
  plasma total cholesterol levels: significantly increased
C57Bl6 mouse; C57Bl6 mouse, 14 days oral, dose-dependent manner starting from 1 mpk
  plasma HDL-cholesterol levels: significantly increased
C57Bl6 mouse; C57Bl6 mouse, 14 days oral, starting from 10 mpk
  plasma levels of free fatty acids: lowered significantly

## CC(C)(Oc1ccc(CCC(OCc2ccccc2)c2ccc(-c3ccc(C(F)(F)F)cc3)s2)c(Cl)c1Cl)C(=O)O (stereo not drawn) [Compound 7, 2-(4-(3-(benzyloxy)-3-(5-(4-(trifluoromethyl)phenyl)thien-2-yl)propyl)-2,3-dichlorophenoxy)-2-methylpropanoic acid]
hPPARalpha; 1% Ultroser
  pEC50: 5.26
hPPARalpha; maximum percentage response relative to the reference phenofibric acid, read-out: hPPARalpha % max
  Emax: 20%

From patent US8088819B2, “Derivatives of substituted 3-phenyl-1-(phenylthienyl)propan-1-ones and of 3-phenyl-1-(phenylfuranyl) propan-1-ones, preparation and use” (priority 2006, dated 2012)
